# Reference: patent publication US20060079453A1, “Hla binding peptides and their uses” (priority 2002, published 2006)
# Where two headings read alike, the source gives them in different places. No end group written: not given here.
# Experiments:
# Assay in all cases: biochemical
# Format in all cases: binding
# [1] = target: HLA-DR DRB1*1501 (DR15) (Homo sapiens, UniProt P01903+P01911)
# [2] = target: HLA-DR DRB5*0101 (DR51) (Homo sapiens, UniProt P01903+Q30154)
# [3] = target: HLA-DR DRB3*0101 (DR52) (Homo sapiens, UniProt P01903+P79483)
# [4] = target: HLA-DR DRB1*1302 (DR13) (Homo sapiens, UniProt P01903+P01911, A100E/A169T/K41T/L162R/M171V/P40S/Q125H/Q178H/Q39Y/Q99D/R42S/S66N/T262R/V115G/W38E/Y61H)
# [5] = target: HLA-DR DRB4*0101 (DR53) (Homo sapiens, UniProt P01903+P13762, G164S)
# [6] = target: HLA-DR DRB1*1101 (DR11) (Homo sapiens, UniProt P01903+P01911, A100R/A169T/A87E/I96F/K41T/L162R/M171V/P40S/Q125H/Q178H/Q39Y/Q99D/R42S/S66Y/T262R/V115G/W38E)
# [7] = target: HLA-DR DRB1*0301 (DR3) (Homo sapiens, UniProt P01903+P01911, A100K/A102G/A103R/A169T/F55Y/I96L/K41T/L162R/M171V/P40S/Q125H/Q178H/Q39Y/R42S/S66N/T106N/T262R/W38E/Y61H)
# [8] = target: HLA-DR DRB1*0701 (DR7) (Homo sapiens, UniProt P01903+P01911, A100R/A102G/A103Q/D57E/D86V/E43K/F76Y/K127E/L162R/M171V/P40G/Q125H/Q99D/R33Q/R42Y/R54Q/S133A/S66F/T210M/V115G/Y107V/Y59L/Y89S); conditions: DRB1 *0701
# [9] = target: HLA-DR DRB1*0401 (DR4) (Homo sapiens, UniProt P01903+P01911, A100K/A169T/F76Y/I96L/K127E/L162R/M171V/N62H/P40V/Q125Y/R42H/S133A/S149N/S66Y/V115G/V209L/W38E); conditions: DRB1 *0401
# [10] = target: HLA-DR DRB1*0802 (DR8) (Homo sapiens, UniProt P01903+P01911, A100R/A103L/A169T/F76Y/H45Y/I96F/K41T/L162R/M171V/P40S/Q125H/Q178H/Q39Y/Q99D/R218S/R42G/S66Y/V115G/W38E)
# [11] = target: HLA-DR DRB1*0901 (DR9) (Homo sapiens, UniProt P01903+P01911, A100R/A103E/D57H/D86V/F55Y/F60I/F76Y/I96F/K127E/L162R/M171V/P40D/Q125H/Q99R/R33Q/R42F/S133A/S66N/T210M/V115G/W38K/Y107V/Y59G/Y89S); conditions: DRB1 *0901
# Chain of HLA-DR DRB1*1302 (DR13) (P01903 26-254 limits assumed, other chains not shown): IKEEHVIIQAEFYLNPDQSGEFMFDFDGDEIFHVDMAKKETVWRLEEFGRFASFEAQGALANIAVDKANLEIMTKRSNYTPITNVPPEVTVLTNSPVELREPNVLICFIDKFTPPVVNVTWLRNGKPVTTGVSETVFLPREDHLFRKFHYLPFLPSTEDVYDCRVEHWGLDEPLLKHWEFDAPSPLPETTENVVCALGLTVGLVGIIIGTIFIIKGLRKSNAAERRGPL
# Chain of HLA-DR DRB1*0301 (DR3) (P01903 26-254 limits assumed, other chains not shown): as above
# Chain of HLA-DR DRB1*1101 (DR11) (P01903 26-254 limits assumed, other chains not shown): as above
Molecule,IC50 ([1]; read-out: DRBI *1501) [µM],IC50 ([2]; read-out: DRB5 *0101) [µM],IC50 ([3]; read-out: DRB3 *0101) [µM],IC50 ([4]; read-out: DRBI *1302) [µM],IC50 ([5]; read-out: DRB4 *0101) [µM],IC50 ([6]; read-out: DRB1 *1101) [µM],IC50 [7] [µM],IC50 [3] [µM],other results
RLFDNAMLRAHRLHQ,0.018,0.058,> 270,0.738,1.63,–,–,–,–
SHDLMLLRLSEPAKI,–,2.03,5.36,0.0018,0.01,–,–,–,–
GGVLVNEILNHMKRA,0.576,0.0087,8.12,0.049,0.0058,0.255,–,–,–
IAKVPPGPNITAEYGDKWLD,–,–,–,–,–,–,> 30,> 20,IC50 [8]: > 12.5 µM; IC50 [9]: > 0.667 µM
DIAAKYKELGY,–,–,–,–,–,–,> 900,> 25,IC50 ([2]; DRB5 *0101): ≥ 200 µM; IC50 ([6]; DRB1 *1101): > 10 µM; IC50 [9]: > 0.471 µM
LWQLNGRLEYCLKDR,–,–,–,–,–,–,–,29,–
CC[C@H](C)[C@H](NC(=O)[C@H](CCC(=O)O)NC(=O)[C@H](CC(N)=O)NC(=O)CNC(=O)[C@H](CC(=O)O)NC(=O)[C@H](CCC(=O)O)NC(=O)[C@H](CC(N)=O)NC(=O)[C@@H](NC(=O)[C@@H](NC(=O)[C@H](CO)NC(=O)[C@@H](NC(=O)[C@@H](N)Cc1ccc(O)cc1)[C@@H](C)CC)[C@@H](C)CC)[C@@H](C)CC)C(=O)N[C@@H](Cc1ccccc1)C(=O)N[C@@H](CC(N)=O)C(=O)N[C@H](C(=O)O)[C@@H](C)O,–,–,–,–,–,–,0.397,–,IC50 [10]: > 123 µM; IC50 ([1]; DRBI *1501): 2.71 µM; IC50 ([2]; DRB5 *0101): 73 µM; IC50 ([6]; DRB1 *1101): > 18.9 µM; IC50 [8]: 23.7 µM; IC50 [9]: 0.624 µM; IC50 ([4]; DRBI *1302): 0.346 µM; IC50 [11]: 83.1 µM; IC50 ([5]; DRB4 *0101): 3.71 µM
LGFFPDHQLDPAFRAN,–,–,1.45,–,–,–,–,–,–
FPTIPLSRLFDNAML,2.77,–,121,9.31,–,46.4,–,–,–
LPSWATEDTMTKIRE,> 45.5,–,5.97,> 35,> 11.1,> 66.7,–,–,–
LGFLQRSSNTQTQKL,–,0.339,> 1750,0.021,–,26.2,–,–,–
CC[C@H](C)[C@H](NC(=O)[C@@H](NC(=O)[C@@H]1CCCN1C(=O)CN)C(C)C)C(=O)N1CCC[C@H]1C(=O)N[C@@H](CCC(N)=O)C(=O)N[C@@H](CC(=O)O)C(=O)N[C@@H](Cc1c[nH]c2ccccc12)C(=O)N[C@@H](CO)C(=O)N[C@H](C(=O)N[C@@H](CCC(=O)O)C(=O)N[C@@H](CS)C(=O)N[C@@H](CCSC)C(=O)N[C@H](C(=O)N[C@H](C(=O)O)[C@@H](C)O)[C@@H](C)O)[C@@H](C)O,–,–,–,–,–,–,52.1,20.3,IC50 ([5]; DRB4 *0101): 0.961 µM
